In BindingDB's records for patent US20250268873 (XRAD Therapeutics, 2025):

Key:
[1] = molecular target: DNA-dependent protein kinase catalytic subunit (Homo sapiens, UniProt P78527); assay: DNA-PK Enzyme-Linked Immunosorbent Assay
Procedure: On day one, a 96-well plate (ThermoFisher, Cat #: 442404) was coated with GST-p53 (1-101) peptide (purified by Pharmaron, BCS department) by diluting 3 μg of GST-p53 in each well with 0.1 M Na2CO3/NaHCO3 (pH 9.6). The plate was incubated overnight at 4° C. On the second day, the coating buffer was removed, and the plate was washed twice with PBST (1×PBS containing 0.1% Tween-20). The DNA-PK enzyme solution (Invitrogen, #PR9107A; the final DNA-PK concentration: 0.1 μg/mL) was then added. The compounds were serially diluted to the final maximal concentration of 100 nM (3 fold series dilution, a total of 10 doses), and an ATP solution (the final ATP concentration: 20 μM) was added to the plate. Incubate the plate at 25° C. for 1 hour. The plate was washed three times with PBST (1×PBS containing 0.1% Tween-20) and blocked with a solution of PBST and 1% BSA at 4° C. overnight. The third day, the plate was washed four times with PBST (1×PBS containing 0.1% Tween-20). Anti-phospho-p53 primary antibody (cell signaling Technology, #9286, Phospho-p53 (Ser15) (16G8) Mouse mAb) (1/1000) was added to each well. The plate was sealed, incubated 1 h at 37° C., and washed four times with PBST (1×PBS containing 0.1% Tween-20). An HRP-linked secondary antibody (Cell signaling Technology, #7076, Anti-mouse IgG, HRP-linked Antibody) (1/1000) (100 μL) was added to each well. […]

[2] = molecular target: T1, Phosphatidylinositol 4,5-bisphosphate 3-kinase catalytic subunit delta isoform (Homo sapiens, UniProt O00329); assay: PI3Kα and PI3Kδ Biochemical Assay
T1 sequence (O00329 whole entry): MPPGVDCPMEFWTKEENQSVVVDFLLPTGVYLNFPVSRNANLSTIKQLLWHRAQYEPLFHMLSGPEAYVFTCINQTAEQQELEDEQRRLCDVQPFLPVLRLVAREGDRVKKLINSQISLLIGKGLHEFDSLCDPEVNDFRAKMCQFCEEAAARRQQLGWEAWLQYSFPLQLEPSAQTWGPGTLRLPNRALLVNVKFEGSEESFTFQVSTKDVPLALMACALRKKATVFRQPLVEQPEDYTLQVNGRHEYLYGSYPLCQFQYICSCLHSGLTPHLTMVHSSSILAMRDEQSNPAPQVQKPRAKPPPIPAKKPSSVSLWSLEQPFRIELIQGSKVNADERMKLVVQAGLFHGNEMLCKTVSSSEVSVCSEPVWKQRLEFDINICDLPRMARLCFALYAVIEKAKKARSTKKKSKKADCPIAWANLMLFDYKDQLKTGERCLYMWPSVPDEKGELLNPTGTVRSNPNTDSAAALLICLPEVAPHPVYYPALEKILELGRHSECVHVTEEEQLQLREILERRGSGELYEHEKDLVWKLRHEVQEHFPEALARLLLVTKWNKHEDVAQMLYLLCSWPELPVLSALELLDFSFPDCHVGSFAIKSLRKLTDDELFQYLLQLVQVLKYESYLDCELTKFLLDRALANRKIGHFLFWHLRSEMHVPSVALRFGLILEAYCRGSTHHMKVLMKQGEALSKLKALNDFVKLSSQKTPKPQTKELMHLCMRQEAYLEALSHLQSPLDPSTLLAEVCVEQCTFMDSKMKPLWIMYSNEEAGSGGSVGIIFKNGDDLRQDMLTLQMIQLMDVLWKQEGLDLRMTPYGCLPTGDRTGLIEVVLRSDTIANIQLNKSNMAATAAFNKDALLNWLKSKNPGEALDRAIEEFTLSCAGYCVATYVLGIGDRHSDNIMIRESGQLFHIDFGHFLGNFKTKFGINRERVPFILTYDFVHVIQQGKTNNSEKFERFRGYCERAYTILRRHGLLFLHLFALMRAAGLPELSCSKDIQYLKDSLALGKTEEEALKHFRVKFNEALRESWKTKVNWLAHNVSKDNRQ
Procedure: (§1) PI3Kα and PI3Kδ Kinase reactions were performed in a 5 μL volume in low-volume 384-well plates. Typically, PerkinElmer model 6008280 plates were used. The 1× kinase reaction buffer consisted of 50 mM HEPES pH 7.5, 3 mM MgCl2, 0.03% CHAPS, 1 mM EGTA, 100 mM NaCl, and 2 mM DTT. PI3Kα (ThermoFisher, #PV4788; the final PI3Kα concentration: 120 ng/mL) or PI3Kδ enzyme solution (ThermoFisher, #PV6451; the final PI3Kδ concentration: 250 ng/mL) was added to the plate, compounds were serially diluted to the final maximal concentration of 100 nM (3 fold series dilution, a total of 10 doses), and the PIP2:3PS (the final concentration: 10 μg/mL) and ATP solution (the final ATP concentration: 10 μM) was added to the 384-well plate. The plate was incubated at 25° C. for 1 hour. ADP-Glo reagent buffer (5 μL) was added to each well. The plate was sealed and incubated for 40 min at 25° C. ADP-Glo detection buffer (10 μL) was added to each well, and the plate was incubated for 40 min at 25° C. and read on a plate reader configured for Luminescence.

[3] = molecular target: Phosphatidylinositol 4,5-bisphosphate 3-kinase catalytic subunit alpha isoform (Homo sapiens, UniProt P42336); assay: PI3Kα and PI3Kδ Biochemical Assay
Phosphatidylinositol 4,5-bisphosphate 3-kinase catalytic subunit alpha isoform, sequence (P42336 whole entry, canonical isoform): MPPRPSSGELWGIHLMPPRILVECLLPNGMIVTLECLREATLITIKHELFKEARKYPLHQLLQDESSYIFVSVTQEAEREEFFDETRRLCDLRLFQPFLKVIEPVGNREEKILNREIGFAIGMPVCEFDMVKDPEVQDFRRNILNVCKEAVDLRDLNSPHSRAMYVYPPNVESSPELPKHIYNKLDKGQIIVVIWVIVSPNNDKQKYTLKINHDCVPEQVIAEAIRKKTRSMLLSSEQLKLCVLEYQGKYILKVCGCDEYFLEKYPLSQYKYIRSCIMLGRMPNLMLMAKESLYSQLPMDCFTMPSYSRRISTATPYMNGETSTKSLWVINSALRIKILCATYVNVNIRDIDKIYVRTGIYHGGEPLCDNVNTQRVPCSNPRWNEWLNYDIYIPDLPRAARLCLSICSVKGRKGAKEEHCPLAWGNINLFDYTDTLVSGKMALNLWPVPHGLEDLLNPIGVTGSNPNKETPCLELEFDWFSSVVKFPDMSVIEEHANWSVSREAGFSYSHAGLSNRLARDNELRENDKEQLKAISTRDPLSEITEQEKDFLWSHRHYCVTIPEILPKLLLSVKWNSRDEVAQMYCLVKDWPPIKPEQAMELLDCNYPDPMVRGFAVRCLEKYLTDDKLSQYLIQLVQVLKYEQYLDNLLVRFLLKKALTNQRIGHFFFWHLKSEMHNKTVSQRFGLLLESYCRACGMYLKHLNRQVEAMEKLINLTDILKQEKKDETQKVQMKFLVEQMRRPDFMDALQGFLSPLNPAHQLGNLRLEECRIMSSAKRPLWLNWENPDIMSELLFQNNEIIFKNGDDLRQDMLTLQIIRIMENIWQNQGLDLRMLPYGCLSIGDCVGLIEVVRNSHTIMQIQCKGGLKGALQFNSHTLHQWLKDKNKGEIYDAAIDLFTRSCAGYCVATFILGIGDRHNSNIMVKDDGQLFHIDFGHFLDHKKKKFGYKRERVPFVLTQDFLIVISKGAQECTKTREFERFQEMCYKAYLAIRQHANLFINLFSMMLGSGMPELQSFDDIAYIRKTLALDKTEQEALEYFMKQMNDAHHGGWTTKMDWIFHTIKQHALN
Procedure: as §1

DNA-dependent protein kinase catalytic subunit, sequence (P78527 whole entry): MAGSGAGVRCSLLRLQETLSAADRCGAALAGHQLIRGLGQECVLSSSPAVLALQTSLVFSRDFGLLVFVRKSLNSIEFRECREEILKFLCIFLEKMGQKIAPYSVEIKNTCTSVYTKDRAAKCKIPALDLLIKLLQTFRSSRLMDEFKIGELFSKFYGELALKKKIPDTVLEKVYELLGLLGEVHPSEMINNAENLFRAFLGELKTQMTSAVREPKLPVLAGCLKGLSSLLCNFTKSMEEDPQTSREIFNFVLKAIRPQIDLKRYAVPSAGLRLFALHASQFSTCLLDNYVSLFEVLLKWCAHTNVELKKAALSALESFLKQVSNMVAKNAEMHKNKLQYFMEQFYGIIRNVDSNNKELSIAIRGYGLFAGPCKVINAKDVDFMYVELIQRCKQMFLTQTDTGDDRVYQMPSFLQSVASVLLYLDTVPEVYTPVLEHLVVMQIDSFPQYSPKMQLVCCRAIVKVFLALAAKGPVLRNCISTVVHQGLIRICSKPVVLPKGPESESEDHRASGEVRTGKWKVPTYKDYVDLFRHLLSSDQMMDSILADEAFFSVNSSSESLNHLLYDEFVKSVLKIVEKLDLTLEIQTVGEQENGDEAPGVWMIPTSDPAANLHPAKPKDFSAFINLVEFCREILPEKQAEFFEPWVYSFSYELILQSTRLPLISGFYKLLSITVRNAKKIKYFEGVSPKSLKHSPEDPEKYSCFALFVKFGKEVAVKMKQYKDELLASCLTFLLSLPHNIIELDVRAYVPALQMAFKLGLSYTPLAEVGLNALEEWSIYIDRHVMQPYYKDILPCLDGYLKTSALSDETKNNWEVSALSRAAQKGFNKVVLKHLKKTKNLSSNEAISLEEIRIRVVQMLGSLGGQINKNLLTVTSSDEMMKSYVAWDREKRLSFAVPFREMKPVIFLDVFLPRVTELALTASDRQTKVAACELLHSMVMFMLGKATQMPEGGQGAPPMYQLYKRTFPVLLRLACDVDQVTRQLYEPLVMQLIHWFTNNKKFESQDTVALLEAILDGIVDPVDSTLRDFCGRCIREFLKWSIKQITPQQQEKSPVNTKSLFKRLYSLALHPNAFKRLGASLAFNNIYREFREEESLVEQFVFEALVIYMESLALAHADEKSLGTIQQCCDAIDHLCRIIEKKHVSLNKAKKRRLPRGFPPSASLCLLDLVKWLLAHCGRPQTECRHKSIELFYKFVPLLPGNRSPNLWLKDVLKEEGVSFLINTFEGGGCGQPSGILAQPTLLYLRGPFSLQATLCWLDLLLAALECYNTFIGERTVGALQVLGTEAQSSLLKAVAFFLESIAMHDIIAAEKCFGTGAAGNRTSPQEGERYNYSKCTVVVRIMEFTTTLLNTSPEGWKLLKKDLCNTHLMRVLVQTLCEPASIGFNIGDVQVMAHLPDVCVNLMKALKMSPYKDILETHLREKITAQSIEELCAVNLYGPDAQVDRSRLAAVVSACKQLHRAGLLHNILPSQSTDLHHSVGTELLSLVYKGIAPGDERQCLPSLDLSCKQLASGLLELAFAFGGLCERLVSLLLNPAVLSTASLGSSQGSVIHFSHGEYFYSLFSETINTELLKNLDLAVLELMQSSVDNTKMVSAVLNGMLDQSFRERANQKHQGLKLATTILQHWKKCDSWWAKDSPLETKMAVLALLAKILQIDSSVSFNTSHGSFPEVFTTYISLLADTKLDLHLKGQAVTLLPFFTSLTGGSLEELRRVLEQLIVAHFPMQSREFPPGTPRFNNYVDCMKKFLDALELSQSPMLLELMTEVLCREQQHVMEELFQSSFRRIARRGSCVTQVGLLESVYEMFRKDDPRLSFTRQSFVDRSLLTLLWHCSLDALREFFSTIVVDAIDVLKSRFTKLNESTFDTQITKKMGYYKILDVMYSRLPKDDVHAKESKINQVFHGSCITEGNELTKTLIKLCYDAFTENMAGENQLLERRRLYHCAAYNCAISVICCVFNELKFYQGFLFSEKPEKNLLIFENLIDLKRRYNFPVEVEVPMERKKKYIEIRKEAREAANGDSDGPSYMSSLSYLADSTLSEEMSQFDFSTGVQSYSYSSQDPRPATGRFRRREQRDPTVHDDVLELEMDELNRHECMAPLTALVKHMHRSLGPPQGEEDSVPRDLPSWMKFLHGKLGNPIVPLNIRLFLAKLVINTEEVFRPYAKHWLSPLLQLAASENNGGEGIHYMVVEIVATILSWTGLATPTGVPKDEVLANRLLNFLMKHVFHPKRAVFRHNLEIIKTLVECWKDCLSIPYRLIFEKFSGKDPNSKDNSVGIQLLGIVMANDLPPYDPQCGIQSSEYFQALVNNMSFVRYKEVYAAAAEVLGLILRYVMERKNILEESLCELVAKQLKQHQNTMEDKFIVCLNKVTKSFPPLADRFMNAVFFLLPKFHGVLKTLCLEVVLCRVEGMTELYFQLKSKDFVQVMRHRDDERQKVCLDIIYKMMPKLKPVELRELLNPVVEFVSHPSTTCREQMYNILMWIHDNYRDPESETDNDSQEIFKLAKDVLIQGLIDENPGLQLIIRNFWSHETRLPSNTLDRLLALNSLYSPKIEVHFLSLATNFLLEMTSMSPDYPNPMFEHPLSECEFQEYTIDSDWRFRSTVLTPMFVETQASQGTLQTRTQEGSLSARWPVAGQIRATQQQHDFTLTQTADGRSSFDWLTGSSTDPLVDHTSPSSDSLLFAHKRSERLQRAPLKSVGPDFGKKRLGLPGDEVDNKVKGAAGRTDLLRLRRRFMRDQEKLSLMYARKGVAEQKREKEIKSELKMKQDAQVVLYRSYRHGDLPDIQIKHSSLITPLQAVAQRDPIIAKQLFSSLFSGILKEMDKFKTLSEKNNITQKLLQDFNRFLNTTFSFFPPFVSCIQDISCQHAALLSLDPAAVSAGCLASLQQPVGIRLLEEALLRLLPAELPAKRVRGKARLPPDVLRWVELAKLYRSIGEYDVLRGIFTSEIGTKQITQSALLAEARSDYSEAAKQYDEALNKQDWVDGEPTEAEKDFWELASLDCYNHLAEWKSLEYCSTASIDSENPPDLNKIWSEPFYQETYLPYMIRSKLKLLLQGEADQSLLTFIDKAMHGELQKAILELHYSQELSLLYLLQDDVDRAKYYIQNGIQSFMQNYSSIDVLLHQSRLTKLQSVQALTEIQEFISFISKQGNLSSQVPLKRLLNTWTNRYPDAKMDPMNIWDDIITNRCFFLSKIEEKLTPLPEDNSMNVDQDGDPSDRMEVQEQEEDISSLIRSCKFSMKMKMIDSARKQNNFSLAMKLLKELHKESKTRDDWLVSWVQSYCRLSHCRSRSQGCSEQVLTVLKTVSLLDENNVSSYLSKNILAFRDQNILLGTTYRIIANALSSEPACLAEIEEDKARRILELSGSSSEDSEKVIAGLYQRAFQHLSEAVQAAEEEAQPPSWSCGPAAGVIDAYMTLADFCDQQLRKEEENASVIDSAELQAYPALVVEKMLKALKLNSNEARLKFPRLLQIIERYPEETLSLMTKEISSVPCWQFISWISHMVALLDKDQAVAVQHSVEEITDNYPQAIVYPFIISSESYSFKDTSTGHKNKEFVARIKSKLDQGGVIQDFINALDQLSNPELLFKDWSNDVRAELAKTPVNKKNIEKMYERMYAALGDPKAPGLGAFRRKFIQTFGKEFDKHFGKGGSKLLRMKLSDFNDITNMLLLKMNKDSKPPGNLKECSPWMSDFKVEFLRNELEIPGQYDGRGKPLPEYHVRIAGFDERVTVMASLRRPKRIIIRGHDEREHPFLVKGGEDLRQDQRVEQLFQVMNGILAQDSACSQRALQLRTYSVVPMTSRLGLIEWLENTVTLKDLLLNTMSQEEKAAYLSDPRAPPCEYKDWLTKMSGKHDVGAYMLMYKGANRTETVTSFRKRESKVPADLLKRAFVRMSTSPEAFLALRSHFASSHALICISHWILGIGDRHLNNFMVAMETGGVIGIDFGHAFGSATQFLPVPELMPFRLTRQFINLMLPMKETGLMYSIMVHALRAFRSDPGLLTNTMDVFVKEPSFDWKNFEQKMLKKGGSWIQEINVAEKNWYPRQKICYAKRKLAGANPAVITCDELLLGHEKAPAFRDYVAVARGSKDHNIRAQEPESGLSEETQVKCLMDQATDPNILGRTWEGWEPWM

Structure (SMILES)	IC50 [1] [nM]	IC50 [2] [nM]	IC50 [3] [nM]
CC(C)NCCOC1=NCC(C2=CC3C4=C(C=NC3CC2F)N(C)C(=O)C42CCC2)C=C1NS(=O)(=O)C(C)C (stereo unspecified) [US20250268873, Compound 568]	0.79	54	18
CCS(=O)(=O)NC1=CC(C2=CC3C4=C(C=NC3CC2F)N(C)C(=O)C42CCC2)CN=C1OCCNC(C)C (stereo unspecified) [US20250268873, Compound 570]	0.63	55	21
